We go through three molecules from publication PMC8270344, “Enantioenriched Positive Allosteric Modulators Display Distinct Pharmacology at the Dopamine D1 Receptor” (Molecules, 2021).

Each structure is given as a SMILES string.

The target in the assay is T1, dopamine D1 receptor (hD1R) (Homo sapiens, UniProt P21728).
T1 construct: gene DRD1; hD1R stably expressed in FlpIn CHO cells
In words: cAMP BRET (CAMYEL) assay with dopamine curves, operational model of allostery (functional KB). The assay is classed as cell-based. To be noted: read-out: pKB (KB, μM) ^1 (converted). For orientation: Bioluminescence resonance energy transfer reports proximity on the nanometre scale.

T1 sequence (P21728 whole entry): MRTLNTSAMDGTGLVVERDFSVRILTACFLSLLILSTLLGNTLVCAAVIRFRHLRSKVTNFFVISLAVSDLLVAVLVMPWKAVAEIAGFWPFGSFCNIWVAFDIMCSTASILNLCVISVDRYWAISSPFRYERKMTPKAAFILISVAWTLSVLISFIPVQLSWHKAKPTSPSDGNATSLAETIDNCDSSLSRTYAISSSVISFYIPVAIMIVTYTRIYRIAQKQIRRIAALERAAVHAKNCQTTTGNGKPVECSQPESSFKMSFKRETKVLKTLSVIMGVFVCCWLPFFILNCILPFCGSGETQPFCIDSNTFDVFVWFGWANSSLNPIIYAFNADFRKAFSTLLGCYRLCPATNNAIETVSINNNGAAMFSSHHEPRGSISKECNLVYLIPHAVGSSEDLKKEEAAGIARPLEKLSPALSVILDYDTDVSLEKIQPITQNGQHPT

As to `Cc1ccc(Cl)c(NC(=O)C2(C)CC3c4ccccc4C2c2ccccc23)c1Cl` (racemic) [rac-2, rel-(9R,10R,12S)-N-(2,6-Dichloro-3-methylphenyl)-12-methyl-9,10-dihydro-9,10-ethanoanthracene-12-carboxamide], the Kb was 1.6 µM.
For `Cc1ccc(Cl)c(NC(=O)[C@]2(C)C[C@H]3c4ccccc4[C@@H]2c2ccccc23)c1Cl` [(R)-2, (9R,10S,12S)-N-(2,6-Dichloro-3-methylphenyl)-12-methyl-9,10-dihydro-9,10-ethanoanthracene-12-carboxamide], the Kb is 7.6 µM.
The value for `Cc1ccc(Cl)c(NC(=O)[C@@]2(C)C[C@H]3c4ccccc4[C@@H]2c2ccccc23)c1Cl` [(S)-2, (9S,10R,12R)-N-(2,6-Dichloro-3-methylphenyl)-12-methyl-9,10-dihydro-9,10-ethanoanthracene-12-carboxamide] was 1 µM.
